From ChEMBL document CHEMBL5465560, “Selectivity Literature for EUbOPEN Chemogenomic Library” (2024)

What was measured:
[1] = molecular target: Angiopoietin-1 receptor (Homo sapiens) (UniProt Q02763); settings: at 10 µM
[2] = molecular target: Ribosomal protein S6 kinase alpha-5 (Homo sapiens) (UniProt O75582); settings: at 10 µM
[3] = molecular target: Tyrosine-protein kinase Blk (Homo sapiens) (UniProt P51451); experiment: Selectivity interaction (KinomeScan (DiscoverX)) EUB0000092b BLK; settings: at 10 µM
[4] = molecular target: Cyclin-dependent kinase 5/CDK5 activator 1 (Homo sapiens) (UniProt Q00535+Q15078); experiment: Selectivity interaction (ProQinase) EUB0000171b CDK5; assay type: protein-complex assay; settings: at 5 µM
[5] = molecular target: Muscarinic acetylcholine receptor M2 (Homo sapiens, UniProt P08172); experiment: Selectivity interaction (Muscarinic M2 Calcium flux assay, agonist and antagonist mode ) EUB0000877a CHRM2
[6] = molecular target: T1, Dual specificity mitogen-activated protein kinase kinase 5 (Homo sapiens) (UniProt Q13163); settings: at 10 µM
T1 sequence (whole entry): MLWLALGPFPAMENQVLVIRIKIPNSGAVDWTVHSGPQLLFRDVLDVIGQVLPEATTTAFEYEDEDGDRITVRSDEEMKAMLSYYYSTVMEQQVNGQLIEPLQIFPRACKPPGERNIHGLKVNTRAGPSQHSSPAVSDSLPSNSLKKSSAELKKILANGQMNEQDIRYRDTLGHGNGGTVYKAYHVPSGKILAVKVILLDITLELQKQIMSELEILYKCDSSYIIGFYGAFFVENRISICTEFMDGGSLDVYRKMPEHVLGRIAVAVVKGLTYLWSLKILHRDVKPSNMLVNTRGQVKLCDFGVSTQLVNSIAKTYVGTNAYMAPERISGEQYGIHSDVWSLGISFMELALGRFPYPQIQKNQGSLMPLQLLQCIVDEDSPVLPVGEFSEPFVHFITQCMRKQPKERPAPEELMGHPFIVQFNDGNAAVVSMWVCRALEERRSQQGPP

[7] = molecular target: SRSF protein kinase 2 (Homo sapiens) (UniProt P78362); settings: at 10 µM
[8] = molecular target: Ribosomal protein S6 kinase beta-2 (Homo sapiens) (UniProt Q9UBS0); experiment: Selectivity interaction (Kinase panel (Z-LYTE Assay)) EUB0001632a RPS6KB2; settings: at 10 µM
[9] = molecular target: Ribosomal protein S6 kinase alpha-5 (Homo sapiens) (UniProt O75582); experiment: Selectivity interaction (Kinase panel (Z-LYTE Assay)) EUB0001632a RPS6KA5; settings: at 10 µM
[10] = molecular target: Phosphatidylinositol 4-kinase beta (Homo sapiens, UniProt Q9UBF8); experiment: Selectivity interaction (KinomeScan (DiscoverX)) EUB0001049a PI4KB; settings: at 1 µM
[11] = molecular target: T2, Phosphatidylinositol 5-phosphate 4-kinase type-2 gamma (Homo sapiens) (UniProt Q8TBX8); experiment: Selectivity interaction (KinomeScan (DiscoverX)) EUB0000045b PIP4K2C; settings: at 1 µM
T2 sequence (whole entry): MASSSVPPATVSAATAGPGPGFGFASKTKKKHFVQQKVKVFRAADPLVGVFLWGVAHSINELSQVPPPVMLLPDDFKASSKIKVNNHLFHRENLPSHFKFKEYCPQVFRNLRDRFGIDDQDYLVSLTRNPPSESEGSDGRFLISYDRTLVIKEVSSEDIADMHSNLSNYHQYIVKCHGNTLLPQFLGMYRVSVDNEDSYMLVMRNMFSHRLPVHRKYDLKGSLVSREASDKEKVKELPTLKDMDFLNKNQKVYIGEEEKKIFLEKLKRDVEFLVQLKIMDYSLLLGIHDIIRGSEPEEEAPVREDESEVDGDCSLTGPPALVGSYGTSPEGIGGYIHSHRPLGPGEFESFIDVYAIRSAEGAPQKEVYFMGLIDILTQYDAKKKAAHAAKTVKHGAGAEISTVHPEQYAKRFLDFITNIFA

[12] = molecular target: T3, Serine/threonine-protein kinase Nek1 (Homo sapiens) (UniProt Q96PY6); experiment: Selectivity interaction (Kinase screening (Nanosyn)) EUB0000604a NEK1
T3 sequence (whole entry): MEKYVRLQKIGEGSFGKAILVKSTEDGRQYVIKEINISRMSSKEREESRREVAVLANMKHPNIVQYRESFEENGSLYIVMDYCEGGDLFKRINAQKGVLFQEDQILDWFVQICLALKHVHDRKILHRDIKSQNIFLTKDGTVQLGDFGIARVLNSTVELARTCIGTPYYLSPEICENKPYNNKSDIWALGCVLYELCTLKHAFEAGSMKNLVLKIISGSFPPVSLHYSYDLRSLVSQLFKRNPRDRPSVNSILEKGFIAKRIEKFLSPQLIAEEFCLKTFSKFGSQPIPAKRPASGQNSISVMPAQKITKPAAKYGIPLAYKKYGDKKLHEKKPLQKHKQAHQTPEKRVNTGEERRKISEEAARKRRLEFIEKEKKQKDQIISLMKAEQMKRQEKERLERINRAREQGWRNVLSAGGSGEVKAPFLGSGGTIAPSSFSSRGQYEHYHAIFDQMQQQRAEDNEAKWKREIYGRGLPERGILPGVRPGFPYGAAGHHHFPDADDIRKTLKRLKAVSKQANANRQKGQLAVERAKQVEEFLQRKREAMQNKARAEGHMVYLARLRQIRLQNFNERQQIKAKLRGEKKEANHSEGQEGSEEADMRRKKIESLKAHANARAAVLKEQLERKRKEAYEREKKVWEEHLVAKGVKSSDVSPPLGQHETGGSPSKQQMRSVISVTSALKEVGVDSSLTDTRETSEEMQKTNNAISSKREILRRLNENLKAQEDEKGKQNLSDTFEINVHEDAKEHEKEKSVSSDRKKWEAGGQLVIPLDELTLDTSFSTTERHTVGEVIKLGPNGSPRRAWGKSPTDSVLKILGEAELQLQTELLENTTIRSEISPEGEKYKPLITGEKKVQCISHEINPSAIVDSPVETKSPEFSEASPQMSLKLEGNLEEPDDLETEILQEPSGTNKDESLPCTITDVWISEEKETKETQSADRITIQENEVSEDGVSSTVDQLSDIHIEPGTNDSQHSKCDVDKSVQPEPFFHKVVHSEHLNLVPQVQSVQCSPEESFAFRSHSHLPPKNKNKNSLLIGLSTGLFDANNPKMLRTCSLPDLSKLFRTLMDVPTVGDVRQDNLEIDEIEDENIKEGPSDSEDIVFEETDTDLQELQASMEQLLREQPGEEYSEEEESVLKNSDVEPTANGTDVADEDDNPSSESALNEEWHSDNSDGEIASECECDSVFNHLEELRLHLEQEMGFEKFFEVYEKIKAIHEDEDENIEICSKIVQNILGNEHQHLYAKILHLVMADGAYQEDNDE

[13] = molecular target: Inositol-tetrakisphosphate 1-kinase (Homo sapiens) (UniProt Q13572); experiment: Selectivity interaction (ActivX KiNativ screen (ex vivo kinase selectivity in human PBMCs)) EUB0001619a ITPK1; assay type: cell-based; settings: PBMC, at 1 µM
[14] = molecular target: Mitogen-activated protein kinase kinase kinase 4 (Homo sapiens) (UniProt Q9Y6R4); experiment: Selectivity interaction (KinomeScan (DiscoverX)) EUB0001619a MAP3K4; settings: at 1 µM

Sequence of Ribosomal protein S6 kinase alpha-5 (Homo sapiens) (O75582 whole entry, looked up): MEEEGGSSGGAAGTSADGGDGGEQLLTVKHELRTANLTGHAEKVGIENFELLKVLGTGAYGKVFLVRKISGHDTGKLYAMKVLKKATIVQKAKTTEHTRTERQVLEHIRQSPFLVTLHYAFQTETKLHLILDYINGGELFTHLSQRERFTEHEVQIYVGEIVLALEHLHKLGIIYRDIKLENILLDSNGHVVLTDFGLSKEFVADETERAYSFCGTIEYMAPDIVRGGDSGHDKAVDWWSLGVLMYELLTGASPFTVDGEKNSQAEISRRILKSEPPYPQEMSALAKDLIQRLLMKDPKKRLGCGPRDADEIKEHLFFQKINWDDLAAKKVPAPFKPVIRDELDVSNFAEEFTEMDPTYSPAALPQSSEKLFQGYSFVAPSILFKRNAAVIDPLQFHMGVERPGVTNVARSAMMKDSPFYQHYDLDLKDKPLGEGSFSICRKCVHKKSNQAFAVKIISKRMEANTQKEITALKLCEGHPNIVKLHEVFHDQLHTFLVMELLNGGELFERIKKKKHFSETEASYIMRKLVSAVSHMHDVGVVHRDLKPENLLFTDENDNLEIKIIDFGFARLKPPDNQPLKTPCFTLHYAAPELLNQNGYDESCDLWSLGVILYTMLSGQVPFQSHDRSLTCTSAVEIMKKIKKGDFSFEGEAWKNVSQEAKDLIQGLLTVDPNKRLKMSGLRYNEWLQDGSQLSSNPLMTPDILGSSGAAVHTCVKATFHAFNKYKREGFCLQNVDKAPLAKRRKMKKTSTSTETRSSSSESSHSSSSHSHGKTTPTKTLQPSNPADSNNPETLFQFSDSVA
Sequence of Angiopoietin-1 receptor (Homo sapiens) (Q02763 whole entry): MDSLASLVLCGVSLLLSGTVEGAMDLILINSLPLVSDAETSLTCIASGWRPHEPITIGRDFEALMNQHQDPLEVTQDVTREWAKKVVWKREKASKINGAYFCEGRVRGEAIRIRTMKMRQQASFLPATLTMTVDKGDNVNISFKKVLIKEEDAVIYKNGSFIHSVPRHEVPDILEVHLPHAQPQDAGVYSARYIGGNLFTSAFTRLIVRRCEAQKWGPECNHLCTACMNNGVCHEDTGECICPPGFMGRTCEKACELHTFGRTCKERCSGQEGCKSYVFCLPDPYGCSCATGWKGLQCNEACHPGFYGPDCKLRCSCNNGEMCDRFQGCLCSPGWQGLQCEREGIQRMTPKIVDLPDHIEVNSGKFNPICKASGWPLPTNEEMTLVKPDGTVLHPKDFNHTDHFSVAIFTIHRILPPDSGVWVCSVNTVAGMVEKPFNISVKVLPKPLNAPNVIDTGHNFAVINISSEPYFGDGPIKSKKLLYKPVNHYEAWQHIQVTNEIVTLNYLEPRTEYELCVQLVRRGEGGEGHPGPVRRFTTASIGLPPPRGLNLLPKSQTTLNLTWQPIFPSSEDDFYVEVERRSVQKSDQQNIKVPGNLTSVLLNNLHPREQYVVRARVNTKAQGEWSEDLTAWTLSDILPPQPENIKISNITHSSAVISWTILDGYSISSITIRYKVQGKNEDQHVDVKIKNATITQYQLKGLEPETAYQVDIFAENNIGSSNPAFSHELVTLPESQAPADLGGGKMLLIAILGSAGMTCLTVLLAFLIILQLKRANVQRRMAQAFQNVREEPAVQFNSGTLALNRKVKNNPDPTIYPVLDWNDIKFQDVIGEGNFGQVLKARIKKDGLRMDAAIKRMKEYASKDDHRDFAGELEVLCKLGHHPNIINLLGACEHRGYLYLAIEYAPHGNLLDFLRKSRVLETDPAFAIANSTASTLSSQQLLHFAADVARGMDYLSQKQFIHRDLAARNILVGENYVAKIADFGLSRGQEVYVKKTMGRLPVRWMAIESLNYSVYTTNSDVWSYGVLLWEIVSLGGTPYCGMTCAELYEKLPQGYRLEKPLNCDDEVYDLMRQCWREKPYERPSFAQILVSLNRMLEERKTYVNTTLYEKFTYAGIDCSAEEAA
Sequence of Inositol-tetrakisphosphate 1-kinase (Homo sapiens) (Q13572 whole entry): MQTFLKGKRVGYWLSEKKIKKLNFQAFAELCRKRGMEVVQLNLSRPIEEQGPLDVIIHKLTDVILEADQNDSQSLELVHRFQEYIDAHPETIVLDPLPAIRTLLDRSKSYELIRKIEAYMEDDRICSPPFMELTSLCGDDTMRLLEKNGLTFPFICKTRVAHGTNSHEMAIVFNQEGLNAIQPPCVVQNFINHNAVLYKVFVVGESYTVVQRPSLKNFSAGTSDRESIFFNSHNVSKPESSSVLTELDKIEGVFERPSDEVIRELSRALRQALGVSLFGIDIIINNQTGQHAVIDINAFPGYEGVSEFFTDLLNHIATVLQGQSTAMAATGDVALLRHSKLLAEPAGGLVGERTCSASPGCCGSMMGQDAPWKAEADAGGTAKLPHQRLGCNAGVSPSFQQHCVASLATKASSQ
Sequence of SRSF protein kinase 2 (Homo sapiens) (P78362 whole entry, looked up): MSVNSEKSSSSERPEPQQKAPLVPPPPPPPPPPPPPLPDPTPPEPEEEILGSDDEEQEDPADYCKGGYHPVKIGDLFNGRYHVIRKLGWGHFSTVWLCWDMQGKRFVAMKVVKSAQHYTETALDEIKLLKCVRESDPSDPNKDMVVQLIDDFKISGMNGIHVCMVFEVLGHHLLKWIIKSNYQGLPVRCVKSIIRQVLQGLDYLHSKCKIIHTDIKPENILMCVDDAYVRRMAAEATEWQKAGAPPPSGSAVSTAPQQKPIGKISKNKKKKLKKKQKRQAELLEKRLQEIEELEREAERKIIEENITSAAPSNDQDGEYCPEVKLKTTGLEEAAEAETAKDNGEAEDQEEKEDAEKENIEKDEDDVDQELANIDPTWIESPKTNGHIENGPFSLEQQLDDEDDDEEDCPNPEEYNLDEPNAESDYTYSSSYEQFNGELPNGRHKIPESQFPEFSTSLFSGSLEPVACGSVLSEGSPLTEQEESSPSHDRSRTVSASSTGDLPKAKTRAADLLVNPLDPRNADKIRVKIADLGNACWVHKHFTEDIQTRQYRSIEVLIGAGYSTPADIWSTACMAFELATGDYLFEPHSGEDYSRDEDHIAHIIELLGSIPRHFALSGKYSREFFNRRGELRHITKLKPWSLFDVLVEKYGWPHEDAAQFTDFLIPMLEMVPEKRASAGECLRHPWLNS
Sequence of Phosphatidylinositol 4-kinase beta (Q9UBF8 2-816 limits assumed): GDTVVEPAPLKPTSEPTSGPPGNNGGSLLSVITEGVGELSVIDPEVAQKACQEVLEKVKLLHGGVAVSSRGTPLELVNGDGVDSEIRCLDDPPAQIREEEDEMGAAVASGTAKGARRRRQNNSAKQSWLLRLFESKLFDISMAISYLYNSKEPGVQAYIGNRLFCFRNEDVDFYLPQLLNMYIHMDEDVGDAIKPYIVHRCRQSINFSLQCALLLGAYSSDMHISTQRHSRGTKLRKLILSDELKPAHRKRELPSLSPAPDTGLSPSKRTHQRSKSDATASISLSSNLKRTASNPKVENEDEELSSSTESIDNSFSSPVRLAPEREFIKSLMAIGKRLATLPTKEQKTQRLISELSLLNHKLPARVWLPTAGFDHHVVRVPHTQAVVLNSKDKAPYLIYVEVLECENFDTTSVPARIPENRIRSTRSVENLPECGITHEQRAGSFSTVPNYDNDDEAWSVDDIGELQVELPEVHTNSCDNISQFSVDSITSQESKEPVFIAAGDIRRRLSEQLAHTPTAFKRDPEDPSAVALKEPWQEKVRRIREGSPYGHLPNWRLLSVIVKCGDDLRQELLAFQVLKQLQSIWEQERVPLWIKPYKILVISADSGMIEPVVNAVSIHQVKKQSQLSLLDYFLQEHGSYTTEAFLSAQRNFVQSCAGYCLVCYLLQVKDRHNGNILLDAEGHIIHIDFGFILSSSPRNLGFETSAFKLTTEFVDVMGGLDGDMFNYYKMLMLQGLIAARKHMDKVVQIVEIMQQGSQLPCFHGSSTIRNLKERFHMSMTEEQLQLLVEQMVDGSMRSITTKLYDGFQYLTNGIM
Sequence of Cyclin-dependent kinase 5/CDK5 activator 1 (Homo sapiens) (Q00535 whole entry): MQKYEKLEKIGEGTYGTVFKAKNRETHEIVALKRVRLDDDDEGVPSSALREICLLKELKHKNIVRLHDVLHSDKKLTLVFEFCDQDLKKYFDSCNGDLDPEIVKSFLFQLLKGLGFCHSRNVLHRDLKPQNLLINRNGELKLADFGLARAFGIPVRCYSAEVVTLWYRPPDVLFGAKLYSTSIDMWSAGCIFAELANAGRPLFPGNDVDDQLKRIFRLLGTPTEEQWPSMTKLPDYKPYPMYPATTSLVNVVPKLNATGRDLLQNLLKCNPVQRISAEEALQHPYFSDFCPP
Sequence of Cyclin-dependent kinase 5/CDK5 activator 1 (Homo sapiens) (Q15078 99-307 partner limits assumed): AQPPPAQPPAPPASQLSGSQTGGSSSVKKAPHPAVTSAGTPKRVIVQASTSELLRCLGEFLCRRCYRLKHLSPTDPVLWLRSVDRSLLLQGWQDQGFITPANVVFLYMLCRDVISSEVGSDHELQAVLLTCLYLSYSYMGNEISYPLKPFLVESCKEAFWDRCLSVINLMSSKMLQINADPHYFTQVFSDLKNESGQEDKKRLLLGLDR
Sequence of Tyrosine-protein kinase Blk (Homo sapiens) (P51451 2-505 limits assumed): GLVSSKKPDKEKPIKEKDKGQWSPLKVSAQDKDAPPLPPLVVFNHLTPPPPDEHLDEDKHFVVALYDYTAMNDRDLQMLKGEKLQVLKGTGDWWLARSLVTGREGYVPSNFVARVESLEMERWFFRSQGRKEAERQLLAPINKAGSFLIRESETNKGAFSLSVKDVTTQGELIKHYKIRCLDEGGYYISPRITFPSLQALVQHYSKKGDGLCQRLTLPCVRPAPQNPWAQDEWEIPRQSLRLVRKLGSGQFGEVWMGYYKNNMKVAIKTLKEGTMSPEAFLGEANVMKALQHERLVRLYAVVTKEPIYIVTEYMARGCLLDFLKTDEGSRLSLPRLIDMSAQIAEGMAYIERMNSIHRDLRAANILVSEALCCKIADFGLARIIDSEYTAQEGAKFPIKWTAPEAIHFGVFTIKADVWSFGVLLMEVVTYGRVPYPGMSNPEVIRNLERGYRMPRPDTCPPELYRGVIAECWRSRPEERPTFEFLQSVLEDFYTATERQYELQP

## CCN(CC)CCCCNc1ncc2cc(-c3cc(OC)cc(OC)c3)c(NC(=O)NC(C)(C)C)nc2n1
[1]
  % of control: 100%
[2]
  % of control: 100%

## CCC(=O)N1CCN(c2ccc(-n3c(=O)ccc4cnc5ccc(-c6cnc7ccccc7c6)cc5c43)cc2C(F)(F)F)CC1
[3]
  % of control: 75%

## C=CC(=O)Nc1cccc(C(=O)Nc2ccc(Nc3cc(-c4[nH]c(SC)nc4C)ccn3)cc2)c1
[4]
  % of control: 36%

## CCC(=O)N1CC[C@H](Nc2ncnc3c2CN(c2cnc(OC)c(C(F)(F)F)c2)CC3)C1 [LENIOLISIB]
[5]
  IC50: > 30 µM

## Cc1cc([C@@H](C)Nc2ccccc2C(=O)O)c2nc(N3CCOCC3)cc(=O)n2c1 [AZD-6482]
[6]
  % of control: 100%
[7]
  % of control: 85%

## Cn1cc(-n2cnc3c(NCc4nc5cc(Cl)c(Cl)cc5[nH]4)nc(N4CCOCC4)nc32)cn1
[8]
  % of control: 3.53%
[9]
  % of control: 0.545%

## COc1cc(Nc2nc(C)cc(-c3cnn4nc(OC)ccc34)n2)cc(C(F)(F)F)c1
[10]
  % of control: 85%

## C=CC(=O)Nc1cc(-n2c(=O)ccc3cnc4ccc(-c5ccc(NS(C)(=O)=O)cc5)cc4c32)ccc1C
[11]
  % of control: 5.6%

## Cc1cnc(Nc2ccc(F)cc2Cl)nc1-c1c[nH]c(C(=O)N[C@H](CO)c2cccc(Cl)c2)c1
[12]
  % of inhibition: 6%

## N#Cc1cccc(-c2c[nH]c3ncnc(N4CCOCC4)c23)c1
[13]
  % of inhibition: -28%
[14]
  % of control: 100%
